This is an account of results in patent publication US20070299084A1, “Indole Derivatives Useful for Treating Resistance to Antitumor Agents” (NIKEM RESE S.R.L., priority 2004, published 2007).

The test system of data set [1] is HT29 cells (human colon carcinoma). Briefly: Antiproliferative activity, 72 h treatment, SRB assay, HT29. The format is cell-based. Conditions: 72 h. treatment; read-out: Antiproliferative activity (IC50 ± S.D., μM) HT-29. (In general: The SRB assay estimates cell density from bound dye.)
The target in data set [2] is Vacuolar ATPase (bafilomycin sensitive ATPase activity) (Homo sapiens, UniProt P27449+Q13488). Briefly: Vacuolar ATPase inhibition in human osteoclastoma (hOc) microsomal fraction. The data set is classed as biochemical. The conditions noted are these: 30 min, 37° C., read-out: v-ATPase Activity (IC50, μM) hOc. On the procedure: 1.1 Determination of Vacuolar ATPase Inhibition in Human Osteoclastoma (hOc)
Osteoclast-like giant cells isolated from human osteoclastoma are homogenized using a glass-teflon homogeniser (1000 rpm) and the material is centrifuged for 20 minutes at 6000 g. The resultant pellet is resuspended and centrifuged at 100000 g for 60 minutes to sediment the microsomal fraction. The resultant pellet is resuspended in medium at pH 7.4 and stored under liquid nitrogen.
Inhibition of bafilomycin sensitive ATPase activity is assayed by measuring the release of inorganic phosphate during 30 minutes of incubation, at 37° C., of the human osteoclastoma microsomal fraction in 96-well plates. The reaction medium contains 1 mM ATP, 10 mM Hepes-Tris buffer pH 8, 50 mM KCl, 5 μM valinomycin, 5 μM nigericin, 1 mM CDTA-Tris, 100 μM ammonium molybdate, 0.2 M sucrose and the microsomal fraction ([…] protein/ml). The reaction is initiated by adding MgSO4 and terminated, after 30 minutes, by adding 4 volumes of the reagent malachite green, prepared according to Chan K., Anal. Biochem. 157, 375-380, 1986.

The subject of data set [3] is HepG2 cells (human hepatic carcinoma). Description: Antiproliferative activity, 48 h treatment, ATPlite luminescence assay, HepG2. The data set is classed as cell-based. Conditions: read-out: Antiproliferative activity (IC50 ± S.D., μM) HepG2. The protocol: HepG2: maintained in EMEM medium+10% FCS.
24 hours after seeding, an aliquot (10 μl) of the drug at the various concentrations is added (for each concentration there are 3 replicates). After 48 hours of treatment the antiproliferative effect is evaluated with a luminescence assay (Perkin Elmer Life Sciences ATPlite):
50 μl of a lysis solution are added to each well followed by an equal volume of a solution containing luciferase and D-luciferin. The ATP present in all the metabolically active cells brings about the transformation reaction of D-luciferin, catalysed by luciferase, to produce a luminescent signal as described in the following scheme: ATP+D-luciferin+O2→Oxyluciferin+AMP+PPi+CO2+Light
The luminescence produced (expressed in counts per second, CPS) is measured by means of a microplate scintillation analyzer (Perkin Elmer Life Sciences Top Count).
Percentage inhibition of luminescence in the treated cells compared to the control is calculated; concentration-response curves are then analysed using Grafit v.5.0.
(In general: ATP-based viability assays read luminescence as a measure of living cells.)

For data set [4], the system named is HT29/Mit cells (mitoxantrone-resistant human colon carcinoma, BCRP overexpression). Description: Antiproliferative activity, 72 h treatment, SRB assay, HT29/Mit. Conditions: read-out: Antiproliferative activity (IC50 ± S.D., μM) HT-29/Mit; 72 h. treatment. On the procedure: HT29 and HT29/Mit (line obtained by prolonged exposure to mitoxantrone, and characterised by overerexpression of BCRP, which confers cross resistance to topotecan, irinotecan and to its metabolite SN38): maintained in McCoy 5A medium+10% FCS.
The cells (HT29 and HT29/Mit:. 40,000 cells/ml, LoVo, LoVo/Dx and HCT116: 50,000 cells/ml) are seeded in 100 μl of the respective culture media in 96-well plates. 24 hours after seeding, an aliquot (10 μl) of drug at the various concentrations is added. In the samples in which the effect of the combination of two compounds is to be tested the inhibitor is added immediately before the cytotoxic. For each dose or combination of doses/drugs the effect of the treatment is determined in 4-8 replicates.
After 72 hours of treatment the antiproliferative effect is evaluated using the sulforhodamine B (SRB) assay: the cells are fixed by adding 25 μl of 50% TCA to each well and left for 1 hour at 4° C. After washing them with water and allowing them to dry, 100 μl of 0.4% SRB in 1% acetic acid are added and left for 30 minutes at room temperature. After 4 washes in 1% acetic acid, they are left to dry, then the dye fixed by the proteins is dissolved under basic conditions with 100 μl 10 mM cold Tris and the solution is read using a spectrophotometer at 550 nm.
Percentage cell growth is calculated as the optical density of treated samples compared to the optical density of controls (untreated cells).
The Combination Index (C.I.) was determined according to Kern's method, 1988 (who continued from Drewinko B, 1976) (Kern D. H., Cancer Res. 48, 117-121, 1988; Drewinko B., Cancer Biochem. Biophys. 1, 187-195, 1976) by means of the following formula: […], where SFa and SFb are the fractions of cells surviving to treatment with compound a and b, respectively; SFab is the fraction surviving to the combination of compounds a and b.

Sequence of Vacuolar ATPase (bafilomycin sensitive ATPase activity) (P38606 whole entry): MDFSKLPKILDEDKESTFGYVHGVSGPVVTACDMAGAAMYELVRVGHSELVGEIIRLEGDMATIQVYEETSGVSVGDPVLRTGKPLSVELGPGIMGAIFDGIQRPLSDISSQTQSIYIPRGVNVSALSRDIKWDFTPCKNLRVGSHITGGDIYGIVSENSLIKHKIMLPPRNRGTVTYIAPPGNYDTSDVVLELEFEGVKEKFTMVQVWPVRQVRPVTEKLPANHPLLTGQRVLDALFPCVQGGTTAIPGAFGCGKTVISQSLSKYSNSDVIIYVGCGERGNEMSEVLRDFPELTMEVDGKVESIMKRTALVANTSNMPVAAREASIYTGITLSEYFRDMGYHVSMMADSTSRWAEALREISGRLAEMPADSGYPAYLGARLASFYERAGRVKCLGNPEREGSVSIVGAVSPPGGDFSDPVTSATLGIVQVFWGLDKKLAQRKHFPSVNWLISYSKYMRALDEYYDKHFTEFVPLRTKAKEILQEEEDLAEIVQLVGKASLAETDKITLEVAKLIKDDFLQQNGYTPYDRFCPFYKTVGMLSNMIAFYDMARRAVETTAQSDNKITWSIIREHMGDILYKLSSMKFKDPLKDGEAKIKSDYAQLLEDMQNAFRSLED
Sequence of Vacuolar ATPase (bafilomycin sensitive ATPase activity) (Q13488 whole entry): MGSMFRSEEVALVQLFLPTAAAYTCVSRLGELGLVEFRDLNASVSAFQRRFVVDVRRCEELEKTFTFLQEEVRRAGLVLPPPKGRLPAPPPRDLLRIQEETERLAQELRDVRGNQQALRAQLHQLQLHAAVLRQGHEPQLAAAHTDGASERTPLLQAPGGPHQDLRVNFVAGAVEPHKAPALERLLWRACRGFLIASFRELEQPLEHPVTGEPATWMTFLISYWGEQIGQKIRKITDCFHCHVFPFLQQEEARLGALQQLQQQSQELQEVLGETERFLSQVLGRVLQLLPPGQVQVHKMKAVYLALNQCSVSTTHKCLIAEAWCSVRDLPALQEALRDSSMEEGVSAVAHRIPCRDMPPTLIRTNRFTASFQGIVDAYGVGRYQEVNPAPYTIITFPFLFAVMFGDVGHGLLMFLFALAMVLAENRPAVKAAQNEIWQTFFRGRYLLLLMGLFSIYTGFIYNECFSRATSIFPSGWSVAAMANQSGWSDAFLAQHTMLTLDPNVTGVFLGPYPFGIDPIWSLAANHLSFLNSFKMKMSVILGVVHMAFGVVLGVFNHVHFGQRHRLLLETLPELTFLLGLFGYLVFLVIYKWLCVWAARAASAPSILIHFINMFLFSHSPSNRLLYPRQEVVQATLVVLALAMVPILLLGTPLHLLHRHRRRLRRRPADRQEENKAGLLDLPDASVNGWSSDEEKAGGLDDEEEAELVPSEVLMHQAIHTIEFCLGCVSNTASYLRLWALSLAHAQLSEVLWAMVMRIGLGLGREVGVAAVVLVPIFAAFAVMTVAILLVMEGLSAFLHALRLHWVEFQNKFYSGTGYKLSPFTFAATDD
Sequence of Vacuolar ATPase (bafilomycin sensitive ATPase activity) (P27449 whole entry): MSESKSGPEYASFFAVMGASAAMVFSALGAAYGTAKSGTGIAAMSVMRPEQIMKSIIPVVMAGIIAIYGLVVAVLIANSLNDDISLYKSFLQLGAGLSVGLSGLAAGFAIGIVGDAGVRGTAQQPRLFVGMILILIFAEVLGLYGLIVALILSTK

As to `CO/C1=C\C(C)=C\[C@@H](C)[C@@H](O)[C@@H](C)C/C(C)=C/C=C/[C@H](OC)[C@@H]([C@@H](C)[C@@H](O)[C@H](C)[C@@]2(O)C[C@@H](O)[C@H](C)[C@@H](C(C)C)O2)OC1=O` [Bafilomycin A1, reference compound], the IC50 was 0.003 ± 0.002 µM in data set [1], 0.0001 µM in data set [2], less than 0.006 µM in data set [3] and 0.005 µM in data set [4].
